Results published in patent US20260262643A1, “HERBICIDAL BENZOXAZINES” (FMC CORPORATION, priority 2022, published 2026).

Columns and labels:
barnyardgrass [1] = assay: Test A preemergence; type: in vivo, Echinochloa crusgalli; conditions: visual injury after 10 days, 0 to 100 scale, 0 is no effect, 100 is complete control
From the text: (§1) Seeds of plant species selected from barnyardgrass (Echinochloa crusgalli), blackgrass (Alopecurus myosuroides), corn (Zea mays), foxtail, giant (giant foxtail, Setaria faberi), goosegrass (Eleusine indica), kochia (Bassia scoparia), oat, wild (wild oat, Avena fatua), pigweed, palmer (palmer amaranth, palmer pigweed, Amaranthus palmeri), Pigweed, Redroot (redroot pigweed, Amaranthus retroflexus), ragweed (common ragweed, Ambrosia artemisiifolia), ryegrass, Italian (italian ryegrass, Lolium multiflorum), soybean (Glycine max), and wheat (Triticum aestivum) were planted into a blend of loam soil and sand and treated preemergence with a directed soil spray using test chemicals formulated in a non-phytotoxic solvent mixture which included a surfactant. At the same time, plants selected from these crops and weed species and also galium (catchweed bedstraw, Galium aparine) and horseweed (Erigeron canadensis) were planted in pots containing the same blend of loam soil and sand and treated with postemergence applications of test chemicals formulated in the same manner. Plants ranged in height from 2 to 10 cm and were in the one- to two-leaf stage for the postemergence treatment. Treated plants and untreated controls were maintained in a greenhouse for 10 days, after which time all treated plants were compared to untreated controls and visually evaluated for injury. Plant response ratings, summarized in Table A, are based on a 0 to 100 scale where 0 is no effect and 100 is complete control. A dash (-) response means no test result.

blackgrass [2] = assay: Test A preemergence; type: in vivo, Alopecurus myosuroides; conditions: 0 to 100 scale
Outline: (§2)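 Greenhouse pot test, 10 days. Compound (non-phytotoxic solvent, surfactant) sprayed on soil at seeding or on seedlings at one- to two-leaf stage. Visual injury rated 0–100 against untreated plants.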

corn [3] = assay: Test A preemergence; type: in vivo, Zea mays; conditions: 0 to 100 scale
Outline: as §2

kochia [4] = assay: Test A preemergence; type: in vivo, Bassia scoparia; conditions: 0 to 100 scale
Outline: as §2

oat, wild [5] = assay: Test A preemergence; type: in vivo, Avena fatua; conditions: 0 to 100 scale
Outline: as §2

pigweed, palmer [6] = assay: Test A preemergence; type: in vivo, Amaranthus palmeri; conditions: 0 to 100 scale
Outline: as §2

ragweed [7] = assay: Test A preemergence; type: in vivo, Ambrosia artemisiifolia; conditions: 0 to 100 scale
Outline: as §2

ryegrass, Italian [8] = assay: Test A preemergence; type: in vivo, Lolium multiflorum; conditions: 0 to 100 scale
Outline: as §2

soybean [9] = assay: Test A preemergence; type: in vivo, Glycine max; conditions: 0 to 100 scale
Outline: as §2

wheat [10] = assay: Test A preemergence; type: in vivo, Triticum aestivum; conditions: 0 to 100 scale
Outline: as §2

barnyardgrass [11] = assay: Test A postemergence; type: in vivo, Echinochloa crusgalli; conditions: postemergence, 10 days; for Barnyardgrass plant response rating: 125 g ai/ha, 0 to 100 scale, 0 no effect, 100 complete control; for Plant response rating, Barnyardgrass: 500 g ai/ha, visual injury, 0 to 100 scale (0 no effect, 100 complete control)
From the text: as §1

blackgrass [12] = assay: Test A postemergence; type: in vivo, Alopecurus myosuroides; conditions: postemergence, 10 days; for Blackgrass plant response rating: 125 g ai/ha, 0 to 100 scale, 0 no effect, 100 complete control; for Plant response rating, Blackgrass: 500 g ai/ha, visual injury, 0 to 100 scale (0 no effect, 100 complete control)
Outline: as §2

corn [13] = assay: Test A postemergence; type: in vivo, Zea mays; conditions: postemergence, 10 days; for Corn plant response rating: 125 g ai/ha, 0 to 100 scale, 0 no effect, 100 complete control; for Plant response rating, Corn: 500 g ai/ha, visual injury, 0 to 100 scale (0 no effect, 100 complete control)
Outline: as §2

kochia [14] = assay: Test A postemergence; type: in vivo, Bassia scoparia; conditions: postemergence, 10 days; for Kochia plant response rating: 125 g ai/ha, 0 to 100 scale, 0 no effect, 100 complete control; for Plant response rating, Kochia: 500 g ai/ha, visual injury, 0 to 100 scale (0 no effect, 100 complete control)
Outline: as §2

oat, wild [15] = assay: Test A postemergence; type: in vivo, Avena fatua; conditions: postemergence, 10 days; for Oat, Wild plant response rating: 125 g ai/ha, 0 to 100 scale, 0 no effect, 100 complete control; for Plant response rating, Oat, Wild: 500 g ai/ha, visual injury, 0 to 100 scale (0 no effect, 100 complete control)
Outline: as §2

pigweed, palmer [16] = assay: Test A postemergence; type: in vivo, Amaranthus palmeri; conditions: postemergence, 10 days; for Pigweed, Palmer plant response rating: 125 g ai/ha, 0 to 100 scale, 0 no effect, 100 complete control; for Plant response rating, Pigweed, Palmer: 500 g ai/ha, visual injury, 0 to 100 scale (0 no effect, 100 complete control)
Outline: as §2

ragweed [17] = assay: Test A postemergence; type: in vivo, Ambrosia artemisiifolia; conditions: postemergence, 10 days; for Ragweed plant response rating: 125 g ai/ha, 0 to 100 scale, 0 no effect, 100 complete control; for Plant response rating, Ragweed: 500 g ai/ha, visual injury, 0 to 100 scale (0 no effect, 100 complete control)
Outline: as §2

ryegrass, Italian [18] = assay: Test A postemergence; type: in vivo, Lolium multiflorum; conditions: postemergence, 10 days; for Ryegrass, Italian plant response rating: 125 g ai/ha, 0 to 100 scale, 0 no effect, 100 complete control; for Plant response rating, Ryegrass, Italian: 500 g ai/ha, visual injury, 0 to 100 scale (0 no effect, 100 complete control)
Outline: as §2

soybean [19] = assay: Test A postemergence; type: in vivo, Glycine max; conditions: postemergence, 10 days; for Soybean plant response rating: 125 g ai/ha, 0 to 100 scale, 0 no effect, 100 complete control; for Plant response rating, Soybean: 500 g ai/ha, visual injury, 0 to 100 scale (0 no effect, 100 complete control)
Outline: as §2

wheat [20] = assay: Test A postemergence; type: in vivo, Triticum aestivum; conditions: postemergence, 10 days; for Wheat plant response rating: 125 g ai/ha, 0 to 100 scale, 0 no effect, 100 complete control; for Plant response rating, Wheat: 500 g ai/ha, visual injury, 0 to 100 scale (0 no effect, 100 complete control)
Outline: as §2

galium = assay: Test A postemergence; type: in vivo, Galium aparine; conditions: postemergence, 10 days; for Galium plant response rating: 125 g ai/ha, 0 to 100 scale, 0 no effect, 100 complete control; for Plant response rating, Galium: 500 g ai/ha, visual injury, 0 to 100 scale (0 no effect, 100 complete control)
Outline: as §2

horseweed = assay: Test A postemergence; type: in vivo, Erigeron canadensis; conditions: postemergence, 10 days; for Horseweed plant response rating: 125 g ai/ha, 0 to 100 scale, 0 no effect, 100 complete control; for Plant response rating, Horseweed: 500 g ai/ha, visual injury, 0 to 100 scale (0 no effect, 100 complete control)
Outline: as §2

barnyardgrass [21] = assay: Test B flooded paddy test; type: in vivo, Echinochloa crus-galli; conditions: 250 g ai/ha, Flood, 13 days, 0 to 100 scale (0 no effect, 100 complete control)
Outline: (§3)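 Percent weed or crop control, judged by eye on a 0–100 scale 13 days post-treatment, reflects compound added to a 3 cm flood maintained over 2-leaf plants in the greenhouse. Missing entries are marked with a dash.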

ducksalad = assay: Test B flooded paddy test; type: in vivo, Heteranthera limosa; conditions: 250 g ai/ha, Flood, 13 days, 0 to 100 scale (0 no effect, 100 complete control)
Outline: as §3

rice = assay: Test B flooded paddy test; type: in vivo, Oryza sativa; conditions: 250 g ai/ha, Flood, 13 days, 0 to 100 scale (0 no effect, 100 complete control)
Outline: as §3

sedge, umbrella = assay: Test B flooded paddy test; type: in vivo, Cyperus difformis; conditions: 250 g ai/ha, Flood, 13 days, 0 to 100 scale (0 no effect, 100 complete control)
Outline: as §3

foxtail, giant = assay: Test A preemergence; type: in vivo, Setaria faberi; conditions: 0 to 100 scale
Outline: as §2

[22] = 500 g ai/ha, visual injury after 10 days, 0 is no effect, 100 is complete control

## C[C@H]1CN(C(=O)c2cc(I)cc(-n3cncn3)c2)c2cccc(Cl)c2O1 [Compound 137]
Barnyardgrass [1]; 125 g ai/ha
  Plant response rating, Barnyardgrass: 0
Barnyardgrass [1]; 500 g ai/ha
  Plant response rating, Barnyardgrass: 40
Blackgrass [2]; 125 g ai/ha
  Plant response rating, Blackgrass: 0
Blackgrass [2]; [22]
  Plant response rating, Blackgrass: 30
Corn [3]; 125 g ai/ha
  Plant response rating, Corn: 0
Corn [3]; [22]
  Plant response rating, Corn: 50
Kochia [4]; 125 g ai/ha
  Plant response rating, Kochia: 0
Kochia [4]; [22]
  Plant response rating, Kochia: 0
oat, wild [5]; 125 g ai/ha
  Plant response rating, Oat, Wild: 0
oat, wild [5]; [22]
  Plant response rating, Oat, Wild: 0
pigweed, palmer [6]; 125 g ai/ha
  Plant response rating, Pigweed, Palmer: 10
pigweed, palmer [6]; [22]
  Plant response rating, Pigweed, Palmer: 80
Ragweed [7]; 125 g ai/ha
  Plant response rating, Ragweed: 0
Ragweed [7]; [22]
  Plant response rating, Ragweed: 0
ryegrass, Italian [8]; 125 g ai/ha
  Plant response rating, Ryegrass, Italian: 70
ryegrass, Italian [8]; [22]
  Plant response rating, Ryegrass, Italian: 80
Soybean [9]; 125 g ai/ha
  Plant response rating, Soybean: 0
Soybean [9]; [22]
  Plant response rating, Soybean: 0
Wheat [10]; 125 g ai/ha
  Plant response rating, Wheat: 0
Wheat [10]; [22]
  Plant response rating, Wheat: 0
Barnyardgrass [11]
  Barnyardgrass plant response rating: 10
  Plant response rating, Barnyardgrass: 10
Blackgrass [12]
  Blackgrass plant response rating: 20
  Plant response rating, Blackgrass: 70
Corn [13]
  Corn plant response rating: 10
  Plant response rating, Corn: 10
Kochia [14]
  Kochia plant response rating: 30
  Plant response rating, Kochia: 70
oat, wild [15]
  Oat, Wild plant response rating: 0
  Plant response rating, Oat, Wild: 0
pigweed, palmer [16]
  Pigweed, Palmer plant response rating: 30
  Plant response rating, Pigweed, Palmer: 60
Ragweed [17]
  Ragweed plant response rating: 30
  Plant response rating, Ragweed: 30
ryegrass, Italian [18]
  Ryegrass, Italian plant response rating: 20
  Plant response rating, Ryegrass, Italian: 30
Soybean [19]
  Soybean plant response rating: 80
  Plant response rating, Soybean: 90
Wheat [20]
  Wheat plant response rating: 10
  Plant response rating, Wheat: 10
galium
  Galium plant response rating: 80
  Plant response rating, Galium: 90
horseweed
  Horseweed plant response rating: 0
  Plant response rating, Horseweed: 30
Barnyardgrass [21]
  Plant response rating, Barnyardgrass: 0
ducksalad
  Plant response rating, Ducksalad: 0
rice
  Plant response rating, Rice: 0
sedge, umbrella
  Plant response rating, Sedge, Umbrella: 0

## Cc1ccc(-n2cnc(CO)n2)cc1C(=O)N1C[C@H](C)Oc2c(Cl)cccc21 [Compound 148]
Barnyardgrass [1]; 125 g ai/ha
  Plant response rating, Barnyardgrass: 70
Barnyardgrass [1]; 500 g ai/ha
  Plant response rating, Barnyardgrass: 100
Blackgrass [2]; 125 g ai/ha
  Plant response rating, Blackgrass: 80
Blackgrass [2]; [22]
  Plant response rating, Blackgrass: 90
Corn [3]; 125 g ai/ha
  Plant response rating, Corn: 60
Corn [3]; [22]
  Plant response rating, Corn: 60
foxtail, giant; 125 g ai/ha
  Plant response rating, Foxtail, Giant: 100
foxtail, giant; [22]
  Plant response rating, Foxtail, Giant: 100
Kochia [4]; 125 g ai/ha
  Plant response rating, Kochia: 20
Kochia [4]; [22]
  Plant response rating, Kochia: 70
oat, wild [5]; 125 g ai/ha
  Plant response rating, Oat, Wild: 20
oat, wild [5]; [22]
  Plant response rating, Oat, Wild: 80
pigweed, palmer [6]; 125 g ai/ha
  Plant response rating, Pigweed, Palmer: 100
pigweed, palmer [6]; [22]
  Plant response rating, Pigweed, Palmer: 100
Ragweed [7]; 125 g ai/ha
  Plant response rating, Ragweed: 30
Ragweed [7]; [22]
  Plant response rating, Ragweed: 90
ryegrass, Italian [8]; 125 g ai/ha
  Plant response rating, Ryegrass, Italian: 80
ryegrass, Italian [8]; [22]
  Plant response rating, Ryegrass, Italian: 100
Soybean [9]; 125 g ai/ha
  Plant response rating, Soybean: 70
Soybean [9]; [22]
  Plant response rating, Soybean: 100
Wheat [10]; 125 g ai/ha
  Plant response rating, Wheat: 30
Wheat [10]; [22]
  Plant response rating, Wheat: 90
Barnyardgrass [11]
  Barnyardgrass plant response rating: 30
  Plant response rating, Barnyardgrass: 80
Blackgrass [12]
  Blackgrass plant response rating: 40
  Plant response rating, Blackgrass: 90
Corn [13]
  Corn plant response rating: 80
  Plant response rating, Corn: 90
Kochia [14]
  Kochia plant response rating: 50
  Plant response rating, Kochia: 80
oat, wild [15]
  Oat, Wild plant response rating: 20
  Plant response rating, Oat, Wild: 70
pigweed, palmer [16]
  Pigweed, Palmer plant response rating: 90
  Plant response rating, Pigweed, Palmer: 100
Ragweed [17]
  Ragweed plant response rating: 50
  Plant response rating, Ragweed: 70
ryegrass, Italian [18]
  Ryegrass, Italian plant response rating: 50
  Plant response rating, Ryegrass, Italian: 80
Soybean [19]
  Soybean plant response rating: 100
  Plant response rating, Soybean: 100
Wheat [20]
  Wheat plant response rating: 30
  Plant response rating, Wheat: 70
galium
  Galium plant response rating: 90
  Plant response rating, Galium: 100
horseweed
  Horseweed plant response rating: 50
  Plant response rating, Horseweed: 50
Barnyardgrass [21]
  Plant response rating, Barnyardgrass: 25
ducksalad
  Plant response rating, Ducksalad: 55
rice
  Plant response rating, Rice: 15
sedge, umbrella
  Plant response rating, Sedge, Umbrella: 65
